{
  "source": "patent US6664398B2",
  "about": "“Derivatives of erythromycin, their preparation process and their use as medicaments” (Aventis Pharma S.A., priority 1999, dated 2003)",
  "format_in_all_cases": "cell-based",
  "key": {"[1]": {"tested_on": "Haemophilus Influenzae 351HT3, 351CB12, 351CA1 and 351GR6", "assay": "Activity on gram-negative bacterial strains", "experimental": "(§1) Method of dilutions in liquid medium A series of tubes is prepared in which the same quantity of nutritive sterile medium is distributed. Increasing quantities of the product to be studied are distributed into each tube, then each tube is sown with a bacterial strain. After incubation for twenty-four hours in a heating chamber at 37° C., the growth inhibition is evaluated by transillumination, which allows the minimal inhibitory concentrations (M.I.C.) to be determined, expressed in micrograms/cm^3. The following results were obtained with the product of Example 1: (reading after 24 hours)"}, "S. mitis 02MitCB1": {"tested_on": "S. mitis 02MitCB1", "assay": "Method of dilutions in liquid medium (M.I.C.)", "details": "reading after 24 hours, 37° C.", "experimental": "as §1"}, "S. pneumoniae 030SJ1c": {"tested_on": "S. pneumoniae 030SJ1c", "assay": "Method of dilutions in liquid medium (M.I.C.)", "details": "reading after 24 hours, 37° C.", "experimental": "as §1"}, "S. mitis 02MitGR16i": {"tested_on": "S. mitis 02MitGR16i", "assay": "Method of dilutions in liquid medium (M.I.C.)", "details": "reading after 24 hours, 37° C.", "experimental": "as §1"}, "S. sanguis 02SGr10i": {"tested_on": "S. sanguis 02SGr10i", "assay": "Method of dilutions in liquid medium (M.I.C.)", "details": "reading after 24 hours, 37° C.", "experimental": "as §1"}, "S. epidermidis 012GO11i": {"tested_on": "S. epidermidis 012GO11i", "assay": "Method of dilutions in liquid medium (M.I.C.)", "details": "reading after 24 hours, 37° C.", "experimental": "as §1"}, "S. pneumoniae 030SJ5i": {"tested_on": "S. pneumoniae 030SJ5i", "assay": "Method of dilutions in liquid medium (M.I.C.)", "details": "reading after 24 hours, 37° C.", "experimental": "as §1"}, "S. aureus 011GO25i": {"tested_on": "S. aureus 011GO25i", "assay": "Method of dilutions in liquid medium (M.I.C.)", "details": "reading after 24 hours, 37° C.", "experimental": "as §1"}, "S. agalactiae 02B1HT1": {"tested_on": "S. agalactiae 02B1HT1", "assay": "Method of dilutions in liquid medium (M.I.C.)", "details": "reading after 24 hours, 37° C.", "experimental": "as §1"}, "S. pneumoniae 030PW23c": {"tested_on": "S. pneumoniae 030PW23c", "assay": "Method of dilutions in liquid medium (M.I.C.)", "details": "reading after 24 hours, 37° C.", "experimental": "as §1"}, "S. pyogenes 02A1UC1": {"tested_on": "S. pyogenes 02A1UC1", "assay": "Method of dilutions in liquid medium (M.I.C.)", "details": "reading after 24 hours, 37° C.", "experimental": "as §1"}, "[2]": {"tested_on": "Streptococcus gr.G 02GOGR5", "assay": "Method of dilutions in liquid medium (M.I.C.)", "details": "reading after 24 hours, 37° C.", "experimental": "as §1"}, "S. faecium 02D3HT1": {"tested_on": "S. faecium 02D3HT1", "assay": "Method of dilutions in liquid medium (M.I.C.)", "details": "reading after 24 hours, 37° C.", "experimental": "as §1"}, "S. pneumoniae 030CR18c": {"tested_on": "S. pneumoniae 030CR18c", "assay": "Method of dilutions in liquid medium (M.I.C.)", "details": "reading after 24 hours, 37° C.", "experimental": "as §1"}, "S. agalactiae 02B1SJ1c": {"tested_on": "S. agalactiae 02B1SJ1c", "assay": "Method of dilutions in liquid medium (M.I.C.)", "details": "reading after 24 hours, 37° C.", "experimental": "as §1"}, "S. pneumoniae 030GR20": {"tested_on": "S. pneumoniae 030GR20", "assay": "Method of dilutions in liquid medium (M.I.C.)", "details": "reading after 24 hours, 37° C.", "experimental": "as §1"}, "S. pneumoniae 030RO1i": {"tested_on": "S. pneumoniae 030RO1i", "assay": "Method of dilutions in liquid medium (M.I.C.)", "details": "reading after 24 hours, 37° C.", "experimental": "as §1"}, "S. pneumoniae 032UC1": {"tested_on": "S. pneumoniae 032UC1", "assay": "Method of dilutions in liquid medium (M.I.C.)", "details": "reading after 24 hours, 37° C.", "experimental": "as §1"}, "S. aureus 011UC4": {"tested_on": "S. aureus 011UC4", "assay": "Method of dilutions in liquid medium (M.I.C.)", "details": "reading after 24 hours, 37° C.", "experimental": "as §1"}, "S. faecalis 02D2DU15c": {"tested_on": "S. faecalis 02D2DU15c", "assay": "Method of dilutions in liquid medium (M.I.C.)", "details": "reading after 24 hours, 37° C.", "experimental": "as §1"}, "S. faecalis 02D2UC1": {"tested_on": "S. faecalis 02D2UC1", "assay": "Method of dilutions in liquid medium (M.I.C.)", "details": "reading after 24 hours, 37° C.", "experimental": "as §1"}},
  "data": [
    {"smiles": "CC[C@H]1OC(=O)[C@H](C)C(=O)[C@H](C)[C@@H](O[C@@H]2O[C@H](C)C[C@H](N(C)C)[C@H]2O)[C@](C)(OC)C[C@@H](C)C(=O)[C@H](C)[C@H]2N(CCCCn3ccc(-c4cccnc4)n3)C(=O)O[C@]12C", "note": "[Example 1, 11,12-dideoxy-3-de[(2,6-dideoxy-3-C-methyl-3-O-methyl-α-L-ribohexopyranosyl)oxy]-6-O-methyl-3-oxo-12,11-[oxycarbonyl[[4-[3-(3-pyridinyl)-1H-pyrazol-1-yl]butyl]imino]]-erythromycin]", "values": [
      {"measurement": "activity on gram-negative bacterial strains", "setting": "[1]", "value": "useful activity"},
      {"measurement": "minimal inhibitory concentrations (M.I.C.)", "setting": "S. mitis 02MitCB1", "value": 0.02, "unit": "micrograms/cm^3"},
      {"measurement": "minimal inhibitory concentrations (M.I.C.)", "setting": "S. pneumoniae 030SJ1c", "value": 0.150, "unit": "micrograms/cm^3"},
      {"measurement": "minimal inhibitory concentrations (M.I.C.)", "setting": "S. mitis 02MitGR16i", "value": 0.02, "unit": "micrograms/cm^3"},
      {"measurement": "minimal inhibitory concentrations (M.I.C.)", "setting": "S. sanguis 02SGr10i", "value": 0.02, "unit": "micrograms/cm^3"},
      {"measurement": "minimal inhibitory concentrations (M.I.C.)", "setting": "S. epidermidis 012GO11i", "value": 0.040, "unit": "micrograms/cm^3"},
      {"measurement": "minimal inhibitory concentrations (M.I.C.)", "setting": "S. pneumoniae 030SJ5i", "value": 0.040, "unit": "micrograms/cm^3"},
      {"measurement": "minimal inhibitory concentrations (M.I.C.)", "setting": "S. aureus 011GO25i", "value": 0.600, "unit": "micrograms/cm^3"},
      {"measurement": "minimal inhibitory concentrations (M.I.C.)", "setting": "S. agalactiae 02B1HT1", "value": 0.02, "unit": "micrograms/cm^3"},
      {"measurement": "minimal inhibitory concentrations (M.I.C.)", "setting": "S. pneumoniae 030PW23c", "value": 0.02, "unit": "micrograms/cm^3"},
      {"measurement": "minimal inhibitory concentrations (M.I.C.)", "setting": "S. pyogenes 02A1UC1", "value": 0.02, "unit": "micrograms/cm^3"},
      {"measurement": "minimal inhibitory concentrations (M.I.C.)", "setting": "[2]", "value": 0.02, "unit": "micrograms/cm^3"},
      {"measurement": "minimal inhibitory concentrations (M.I.C.)", "setting": "S. faecium 02D3HT1", "value": 0.02, "unit": "micrograms/cm^3"},
      {"measurement": "minimal inhibitory concentrations (M.I.C.)", "setting": "S. pneumoniae 030CR18c", "value": 0.300, "unit": "micrograms/cm^3"},
      {"measurement": "minimal inhibitory concentrations (M.I.C.)", "setting": "S. agalactiae 02B1SJ1c", "value": 0.050, "unit": "micrograms/cm^3"},
      {"measurement": "minimal inhibitory concentrations (M.I.C.)", "setting": "S. pneumoniae 030GR20", "value": 0.02, "unit": "micrograms/cm^3"},
      {"measurement": "minimal inhibitory concentrations (M.I.C.)", "setting": "S. pneumoniae 030RO1i", "value": 0.150, "unit": "micrograms/cm^3"},
      {"measurement": "minimal inhibitory concentrations (M.I.C.)", "setting": "S. pneumoniae 032UC1", "value": 0.02, "unit": "micrograms/cm^3"},
      {"measurement": "minimal inhibitory concentrations (M.I.C.)", "setting": "S. aureus 011UC4; S. aureus 011UC4+ 50% serum", "value": 0.600, "unit": "micrograms/cm^3"},
      {"measurement": "minimal inhibitory concentrations (M.I.C.)", "setting": "S. aureus 011UC4; S. aureus 011UC4", "value": 0.040, "unit": "micrograms/cm^3"},
      {"measurement": "minimal inhibitory concentrations (M.I.C.)", "setting": "S. faecalis 02D2DU15c", "value": 5.000, "unit": "micrograms/cm^3"},
      {"measurement": "minimal inhibitory concentrations (M.I.C.)", "setting": "S. faecalis 02D2UC1", "value": 0.02, "unit": "micrograms/cm^3"}
    ]}
  ]
}
